Reference: article PMC6891286, “Towards the Development of an In vivo Chemical Probe for Cyclin G Associated Kinase (GAK)” (Molecules, 2019)

What was measured:
Test in all cases: KINOMEscan
Format in all cases: binding
[1] = biological target: T1, TYK2(JH1domain-catalytic) (Homo sapiens, UniProt P29597); conditions: 35 at 1 µM; read-out: % inhibition
T1 construct: TYK2(JH1domain-catalytic); purchased Eurofins DiscoverX (KINOMEscan)
Description: (§1) KinomeScan Assay on 35 was performed as previously described at EuroFins DiscoverX (Fremont, CA, USA).

PIK3C2G = biological target: T2, PIK3C2G (Homo sapiens, UniProt O75747); conditions: 35 at 1 µM; read-out: % inhibition
T2 construct: purchased Eurofins DiscoverX (KINOMEscan)
T2 sequence (O75747 whole entry): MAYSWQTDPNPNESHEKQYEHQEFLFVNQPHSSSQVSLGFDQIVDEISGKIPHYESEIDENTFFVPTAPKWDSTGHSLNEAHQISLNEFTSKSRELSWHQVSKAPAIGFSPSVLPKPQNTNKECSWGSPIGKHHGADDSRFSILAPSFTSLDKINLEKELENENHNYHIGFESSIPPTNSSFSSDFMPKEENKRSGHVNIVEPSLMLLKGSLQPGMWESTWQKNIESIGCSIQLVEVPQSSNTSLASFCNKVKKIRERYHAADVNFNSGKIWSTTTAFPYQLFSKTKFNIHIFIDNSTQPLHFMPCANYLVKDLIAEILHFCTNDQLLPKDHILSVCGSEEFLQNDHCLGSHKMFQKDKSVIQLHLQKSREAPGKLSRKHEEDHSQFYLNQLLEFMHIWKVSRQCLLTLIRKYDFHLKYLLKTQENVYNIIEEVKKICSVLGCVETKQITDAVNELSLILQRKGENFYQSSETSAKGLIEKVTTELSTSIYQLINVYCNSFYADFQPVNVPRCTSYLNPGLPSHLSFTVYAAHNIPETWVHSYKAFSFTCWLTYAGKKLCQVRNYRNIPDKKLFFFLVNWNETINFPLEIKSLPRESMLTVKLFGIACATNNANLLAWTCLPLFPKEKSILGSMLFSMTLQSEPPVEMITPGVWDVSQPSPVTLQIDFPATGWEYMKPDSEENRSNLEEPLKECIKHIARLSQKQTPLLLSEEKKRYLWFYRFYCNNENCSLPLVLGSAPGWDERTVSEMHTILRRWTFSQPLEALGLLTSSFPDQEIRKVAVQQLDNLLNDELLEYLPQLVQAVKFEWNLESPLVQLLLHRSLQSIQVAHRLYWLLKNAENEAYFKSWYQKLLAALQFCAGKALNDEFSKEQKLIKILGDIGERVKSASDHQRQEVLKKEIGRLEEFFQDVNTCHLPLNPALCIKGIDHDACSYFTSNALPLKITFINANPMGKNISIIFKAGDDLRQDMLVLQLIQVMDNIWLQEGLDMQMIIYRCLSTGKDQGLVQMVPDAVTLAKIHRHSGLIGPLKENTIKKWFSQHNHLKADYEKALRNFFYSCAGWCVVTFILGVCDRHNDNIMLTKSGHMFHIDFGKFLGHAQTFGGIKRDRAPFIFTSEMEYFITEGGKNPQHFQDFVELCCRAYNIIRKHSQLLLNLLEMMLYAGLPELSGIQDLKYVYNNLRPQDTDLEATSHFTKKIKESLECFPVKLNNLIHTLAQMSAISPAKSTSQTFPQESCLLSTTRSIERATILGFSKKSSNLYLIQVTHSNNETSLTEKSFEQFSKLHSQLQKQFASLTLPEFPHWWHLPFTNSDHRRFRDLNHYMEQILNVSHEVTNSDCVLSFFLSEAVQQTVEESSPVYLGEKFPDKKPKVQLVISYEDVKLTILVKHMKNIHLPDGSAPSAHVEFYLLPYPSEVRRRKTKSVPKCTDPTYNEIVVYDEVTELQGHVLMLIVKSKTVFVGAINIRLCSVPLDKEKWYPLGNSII
Description: as §1

TBK1 = biological target: T3, TBK1 (Homo sapiens, UniProt Q9UHD2); conditions: 35 at 1 µM; read-out: % inhibition
T3 construct: purchased Eurofins DiscoverX (KINOMEscan)
Description: as §1

PKMYT1 = biological target: T4, PKMYT1 (Homo sapiens, UniProt Q99640); conditions: 35 at 1 µM; read-out: % inhibition
T4 construct: purchased Eurofins DiscoverX (KINOMEscan)
Description: as §1

ZAK = biological target: T5, ZAK (Homo sapiens, UniProt Q9NYL2); conditions: 35 at 1 µM; read-out: % inhibition
T5 construct: purchased EuroFins DiscoverX (Fremont, CA, USA)
Description: as §1

TIE2 = biological target: T6, TIE2 (Homo sapiens, UniProt Q02763); conditions: 35 at 1 µM; read-out: % inhibition
T6 construct: purchased Eurofins DiscoverX (KINOMEscan)
Description: as §1

TESK1 = biological target: T7, TESK1 (Homo sapiens, UniProt Q15569); conditions: 35 at 1 µM; read-out: % inhibition
T7 construct: purchased Eurofins DiscoverX (KINOMEscan)
T7 sequence (Q15569 whole entry): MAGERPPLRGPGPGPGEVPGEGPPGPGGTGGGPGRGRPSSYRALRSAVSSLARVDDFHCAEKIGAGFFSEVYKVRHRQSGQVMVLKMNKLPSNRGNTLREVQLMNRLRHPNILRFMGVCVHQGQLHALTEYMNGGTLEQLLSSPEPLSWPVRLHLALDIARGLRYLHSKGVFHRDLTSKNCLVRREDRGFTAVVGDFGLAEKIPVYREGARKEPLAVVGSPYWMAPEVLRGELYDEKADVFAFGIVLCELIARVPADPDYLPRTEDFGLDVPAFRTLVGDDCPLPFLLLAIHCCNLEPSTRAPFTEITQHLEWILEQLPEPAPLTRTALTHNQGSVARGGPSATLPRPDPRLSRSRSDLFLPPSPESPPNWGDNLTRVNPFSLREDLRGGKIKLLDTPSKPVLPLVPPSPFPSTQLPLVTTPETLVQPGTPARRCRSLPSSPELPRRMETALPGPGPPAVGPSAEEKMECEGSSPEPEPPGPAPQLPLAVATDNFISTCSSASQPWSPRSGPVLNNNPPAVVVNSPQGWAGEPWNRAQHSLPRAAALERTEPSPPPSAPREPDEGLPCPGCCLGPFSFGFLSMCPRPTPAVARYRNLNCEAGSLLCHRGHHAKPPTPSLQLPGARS
Description: as §1

[2] = biological target: T8, JAK1(JH1domain-catalytic) (Homo sapiens, UniProt P23458); conditions: 35 at 1 µM; read-out: % inhibition
T8 construct: JAK1(JH1domain-catalytic); purchased Eurofins DiscoverX (KINOMEscan)
Description: as §1

RIPK1 = biological target: T9, RIPK1 (Homo sapiens, UniProt Q13546); conditions: 35 at 1 µM; read-out: % inhibition
T9 construct: purchased Eurofins DiscoverX (KINOMEscan)
Description: as §1

KIT(D816H) = biological target: T10, KIT(D816H) (Homo sapiens, UniProt P10721, D816H); conditions: 35 at 1 µM; read-out: % inhibition
T10 construct: purchased Eurofins DiscoverX (KINOMEscan)
Description: as §1

TRKA = biological target: T11, TRKA (Homo sapiens, UniProt P04629); conditions: 35 at 1 µM; read-out: % inhibition
T11 construct: purchased Eurofins DiscoverX (KINOMEscan)
Description: as §1

[3] = biological target: T12, RSK2(Kin.Dom.2-C-terminal) (Homo sapiens, UniProt P51812); conditions: 35 at 1 µM; read-out: % inhibition
T12 construct: RSK2(Kin.Dom.2-C-terminal); purchased Eurofins DiscoverX (KINOMEscan)
T12 sequence (P51812 398-740 limits assumed): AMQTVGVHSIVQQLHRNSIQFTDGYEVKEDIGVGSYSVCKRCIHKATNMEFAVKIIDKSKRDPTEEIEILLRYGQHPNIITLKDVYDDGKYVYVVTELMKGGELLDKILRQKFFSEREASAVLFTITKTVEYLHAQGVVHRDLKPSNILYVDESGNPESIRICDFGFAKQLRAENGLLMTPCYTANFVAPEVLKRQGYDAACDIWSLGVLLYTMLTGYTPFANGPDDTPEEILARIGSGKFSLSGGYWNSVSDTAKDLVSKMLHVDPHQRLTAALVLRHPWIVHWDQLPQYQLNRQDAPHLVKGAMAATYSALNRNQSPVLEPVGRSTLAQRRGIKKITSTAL
Description: as §1

MAP4K3 = biological target: T13, MAP4K3 (Homo sapiens, UniProt Q8IVH8); conditions: 35 at 1 µM; read-out: % inhibition
T13 construct: purchased Eurofins DiscoverX (KINOMEscan)
Description: as §1

PFPK5(P.falciparum) = biological target: T14, PFPK5(P.falciparum) (Plasmodium falciparum, UniProt P61075); conditions: 35 at 1 µM; read-out: % inhibition
T14 construct: purchased Eurofins DiscoverX (KINOMEscan)
Description: as §1

ICK = biological target: T15, ICK (Homo sapiens, UniProt Q9UPZ9); conditions: 35 at 1 µM; read-out: % inhibition
T15 construct: purchased Eurofins DiscoverX (KINOMEscan)
Description: as §1

MST2 = biological target: T16, MST2 (Homo sapiens, UniProt Q13188); conditions: 35 at 1 µM; read-out: % inhibition
T16 construct: purchased Eurofins DiscoverX (KINOMEscan)
Description: as §1

PKN1 = biological target: T17, PKN1 (Homo sapiens, UniProt Q16512); conditions: 35 at 1 µM; read-out: % inhibition
T17 construct: purchased Eurofins DiscoverX (KINOMEscan)
Description: as §1

RET = biological target: T18, RET (Homo sapiens, UniProt P07949); conditions: 35 at 1 µM; read-out: % inhibition
T18 construct: purchased Eurofins DiscoverX (KINOMEscan)
Description: as §1

CAMK2B = biological target: T19, CAMK2B (Homo sapiens, UniProt Q13554); conditions: 35 at 1 µM; read-out: % inhibition
T19 construct: purchased Eurofins DiscoverX (KINOMEscan)
Description: as §1

TGFBR2 = biological target: T20, TGFBR2 (Homo sapiens, UniProt P37173)
T20 construct: purchased Eurofins DiscoverX (KINOMEscan)
T20 sequence (P37173 23-567): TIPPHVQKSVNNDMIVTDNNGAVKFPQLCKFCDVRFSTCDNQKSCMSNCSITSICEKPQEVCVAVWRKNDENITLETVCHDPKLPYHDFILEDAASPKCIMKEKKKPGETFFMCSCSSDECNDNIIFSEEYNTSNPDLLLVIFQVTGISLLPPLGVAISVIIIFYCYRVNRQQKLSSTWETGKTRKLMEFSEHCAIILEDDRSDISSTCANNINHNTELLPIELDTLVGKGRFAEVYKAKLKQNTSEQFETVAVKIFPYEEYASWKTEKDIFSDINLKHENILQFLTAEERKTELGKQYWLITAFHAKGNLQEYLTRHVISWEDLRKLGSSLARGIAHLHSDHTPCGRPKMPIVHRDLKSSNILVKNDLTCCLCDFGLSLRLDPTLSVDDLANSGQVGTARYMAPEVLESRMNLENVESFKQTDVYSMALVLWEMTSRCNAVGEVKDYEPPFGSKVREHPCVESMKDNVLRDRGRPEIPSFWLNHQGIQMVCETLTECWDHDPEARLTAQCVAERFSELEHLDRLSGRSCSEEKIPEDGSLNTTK
Description: as §1

FER = biological target: T21, FER (Homo sapiens, UniProt P16591); conditions: 35 at 1 µM; read-out: % inhibition
T21 construct: purchased Eurofins DiscoverX (KINOMEscan)
Description: as §1

CDC2L5 = biological target: T22, CDC2L5 (Homo sapiens, UniProt Q14004); conditions: 35 at 1 µM; read-out: % inhibition
T22 construct: purchased Eurofins DiscoverX (KINOMEscan)
T22 sequence (Q14004 whole entry): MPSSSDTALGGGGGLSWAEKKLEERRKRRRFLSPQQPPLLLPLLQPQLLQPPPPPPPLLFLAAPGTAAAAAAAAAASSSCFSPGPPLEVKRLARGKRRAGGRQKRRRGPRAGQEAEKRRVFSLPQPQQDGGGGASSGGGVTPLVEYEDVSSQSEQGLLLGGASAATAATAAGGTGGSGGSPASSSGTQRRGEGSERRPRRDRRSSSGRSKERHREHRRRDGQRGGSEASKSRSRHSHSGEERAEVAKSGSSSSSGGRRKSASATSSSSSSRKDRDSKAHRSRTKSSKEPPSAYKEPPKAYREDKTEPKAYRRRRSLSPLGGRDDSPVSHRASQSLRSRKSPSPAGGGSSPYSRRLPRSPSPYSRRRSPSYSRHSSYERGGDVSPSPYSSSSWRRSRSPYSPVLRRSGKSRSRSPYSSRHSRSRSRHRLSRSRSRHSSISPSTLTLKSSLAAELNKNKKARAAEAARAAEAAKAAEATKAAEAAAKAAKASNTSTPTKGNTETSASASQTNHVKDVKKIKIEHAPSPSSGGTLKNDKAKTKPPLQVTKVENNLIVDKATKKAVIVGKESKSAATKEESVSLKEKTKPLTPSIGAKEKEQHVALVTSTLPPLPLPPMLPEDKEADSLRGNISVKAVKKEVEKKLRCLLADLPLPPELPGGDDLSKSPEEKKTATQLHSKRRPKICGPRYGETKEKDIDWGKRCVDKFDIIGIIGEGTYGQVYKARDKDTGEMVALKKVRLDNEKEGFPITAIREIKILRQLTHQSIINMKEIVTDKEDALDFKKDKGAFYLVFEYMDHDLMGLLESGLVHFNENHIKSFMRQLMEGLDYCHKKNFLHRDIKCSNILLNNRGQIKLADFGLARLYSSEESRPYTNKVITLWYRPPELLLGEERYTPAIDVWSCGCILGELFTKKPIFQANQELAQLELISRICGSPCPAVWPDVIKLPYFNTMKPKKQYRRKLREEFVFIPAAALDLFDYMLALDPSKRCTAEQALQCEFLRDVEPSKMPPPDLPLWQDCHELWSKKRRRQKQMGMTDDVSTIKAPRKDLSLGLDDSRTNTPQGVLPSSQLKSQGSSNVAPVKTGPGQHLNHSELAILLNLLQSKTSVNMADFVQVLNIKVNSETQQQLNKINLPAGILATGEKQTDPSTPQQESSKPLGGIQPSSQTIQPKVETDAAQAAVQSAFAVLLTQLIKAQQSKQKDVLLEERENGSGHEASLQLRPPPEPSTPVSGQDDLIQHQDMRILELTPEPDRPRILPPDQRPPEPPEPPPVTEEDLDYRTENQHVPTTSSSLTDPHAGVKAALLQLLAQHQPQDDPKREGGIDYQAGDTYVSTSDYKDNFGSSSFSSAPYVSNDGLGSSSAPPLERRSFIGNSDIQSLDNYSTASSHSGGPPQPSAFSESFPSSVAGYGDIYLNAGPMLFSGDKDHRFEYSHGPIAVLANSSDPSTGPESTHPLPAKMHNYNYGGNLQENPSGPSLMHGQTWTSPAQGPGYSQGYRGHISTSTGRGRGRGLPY
Description: as §1

DLK = biological target: T23, DLK (Homo sapiens, UniProt Q12852); conditions: 35 at 1 µM; read-out: % inhibition
T23 construct: purchased Eurofins DiscoverX (KINOMEscan)
Description: as §1

[4] = biological target: T24, ABL1(Y253F)-phosphorylated (Homo sapiens, UniProt P00519, Y253F); conditions: 35 at 1 µM; read-out: % inhibition
T24 construct: purchased Eurofins DiscoverX (KINOMEscan)
Description: as §1

MAPKAPK2 = biological target: T25, MAPKAPK2 (Homo sapiens, UniProt P49137); conditions: 35 at 1 µM; read-out: % inhibition
T25 construct: purchased Eurofins DiscoverX (KINOMEscan)
T25 sequence (P49137 whole entry): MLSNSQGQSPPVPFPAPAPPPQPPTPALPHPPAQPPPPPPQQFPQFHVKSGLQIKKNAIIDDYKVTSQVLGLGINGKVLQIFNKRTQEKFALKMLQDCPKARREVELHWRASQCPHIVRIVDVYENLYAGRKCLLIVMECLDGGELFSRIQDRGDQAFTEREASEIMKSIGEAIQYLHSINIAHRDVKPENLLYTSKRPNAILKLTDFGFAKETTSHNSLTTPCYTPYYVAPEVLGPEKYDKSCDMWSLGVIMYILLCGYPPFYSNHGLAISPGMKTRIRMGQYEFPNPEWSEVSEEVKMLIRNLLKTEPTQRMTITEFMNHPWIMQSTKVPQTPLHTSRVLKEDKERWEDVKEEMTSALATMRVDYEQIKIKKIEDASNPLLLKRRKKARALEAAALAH
Description: as §1

EPHA7 = biological target: T26, EPHA7 (Homo sapiens, UniProt Q15375); conditions: 35 at 1 µM; read-out: % inhibition
T26 construct: purchased Eurofins DiscoverX (KINOMEscan)
Description: as §1

ROS1 = biological target: T27, ROS1 (Homo sapiens, UniProt P08922); conditions: 35 at 1 µM; read-out: % inhibition
T27 construct: purchased Eurofins DiscoverX (KINOMEscan)
Description: as §1

MET(M1250T) = biological target: T28, MET(M1250T) (Homo sapiens, UniProt P08581, M1250T); conditions: 35 at 1 µM; read-out: % inhibition
T28 construct: purchased Eurofins DiscoverX (KINOMEscan)
Description: as §1

ERK3 = biological target: T29, ERK3 (Homo sapiens, UniProt Q16659); conditions: 35 at 1 µM; read-out: % inhibition
T29 construct: purchased Eurofins DiscoverX (KINOMEscan)
Description: as §1

Brc1ccc2nccc(Nc3ccc4cn[nH]c4c3)c2c1 [Compound 35, 6-Bromo-N-(1H-indazol-6-yl)quinolin-4-amine]
activity at 1 µM [1]: 100%
activity at 1 µM (PIK3C2G): 100%
activity at 1 µM (TBK1): 76%
activity at 1 µM (PKMYT1): 100%
activity at 1 µM (ZAK): 100%
activity at 1 µM (TIE2): 100%
activity at 1 µM (TESK1): 100%
activity at 1 µM [2]: 100%
activity at 1 µM (RIPK1): 100%
activity at 1 µM (KIT(D816H)): 100%
activity at 1 µM (TRKA): 100%
activity at 1 µM [3]: 100%
activity at 1 µM (MAP4K3): 100%
activity at 1 µM (PFPK5(P.falciparum)): 100%
activity at 1 µM (ICK): 100%
activity at 1 µM (MST2): 100%
activity at 1 µM (PKN1): 100%
activity at 1 µM (RET): 100%
activity at 1 µM (CAMK2B): 100%
activity at 1 µM (TGFBR2; 35 at 1 µM, read-out: % inhibition): 18%
inhibition at 1 µM (TGFBR2; KinomeScan, screened at 1 μM, read-out: kinases inhibited at 1 μM: TGFBR2): 82%
activity at 1 µM (FER): 96%
activity at 1 µM (CDC2L5): 73%
activity at 1 µM (DLK): 100%
activity at 1 µM [4]: 100%
activity at 1 µM (MAPKAPK2): 100%
activity at 1 µM (EPHA7): 100%
activity at 1 µM (ROS1): 94%
activity at 1 µM (MET(M1250T)): 100%
activity at 1 µM (ERK3): 100%
